Reference: patent US20100227841A1, “Patient populations and treatment methods” (Harbor BioSciencs, Inc., priority 2008, published 2010)

System: patients having type 2 diabetes
Experiment: Phase II double-blinded placebo controlled 12-week trial in type 2 diabetes patients on metformin
Type: in vivo, human
Conditions: for Fasting C-peptide Change from baseline / Fasting Glucose Change from baseline / HbA1c Change from baseline / LDL Cholesterol change from baseline / Total Cholesterol change from baseline / Weight change from baseline / HOMA2% insulin sensitivity change from baseline / HOMA2% β cell function change from baseline / HOMA2 Insulin resistance change from baseline: 5 mg twice per day + metformin; for HOMA2% insulin sensitivity change from baseline / HOMA2% β cell function change from baseline / HOMA2 Insulin resistance change from baseline: calculated using C-peptide
Description: Patients having type 2 diabetes were evaluated for their baseline BMI and levels of MCP1, insulin and C peptide. The effect of treatment with 17α-ethynylandrost-5-ene-3β,7β,17β-triol (5 mg administered orally twice per day for 84 days) on total cholesterol, LDL cholesterol, hemoglobin A1c (HbA1c) plus metformin (500-2250 mg/day, which was administered in one or two doses per day for 84 days), weight, and other biological responses is shown in the tables below. The effect of treatment in all treated patients was compared with the effect of the same treatment in the responder population, characterized as having a BMI>27.99 (overweight or obese), insulin resistant (C-peptide >1.99 ng/mL or essentially normal insulin >3.99 μU/mL to about 29 μU/mL with hyperglycemia), and having an elevated serum MCP1>399.99 pg/mL, indicating a state of systemic inflammation. The responder patients were a subset of all patients were treated.
The Phase II, double-blinded placebo controlled 12-week dosing trial of example 4 enrolled 96 subjects with a hemoglobin A1c (HbA1c) level in excess of 7.5 percent and were being treated with a stable metformin dose as described above. The primary objectives of this trial were to evaluate the safety and tolerance of 17α-ethynylandrost-5-ene-3β,7β,17β-triol, 10 mg per day (5 mg twice daily), compared to placebo from baseline to week 12 and to evaluate the change in HbA1c from baseline to week 12 in the 17α-ethynylandrost-5-ene-3β,7β,17β-triol treated group when compared to the placebo group.
A retrospective analysis of data was performed on the subpopulation of patients that represented an obese, insulin-resistant, diabetic population. This analysis included patients who met the following criteria at baseline: BMI greater than or equal to 28; fasting plasma insulin levels greater than or equal to 4 μU/mL; fasting plasma C-peptide levels greater than or equal to 2 ng/mL; and serum monocyte chemoattractant protein-1 (MCP1) levels greater than or equal to 400 pg/mL. This phenotype represented 35% of all 89 patients with values reported for these parameters at baseline. Twenty-two individuals with this phenotype completed the 84 days of dosing. […] These changes in secondary indicators of activity were consistent with the observed decreases in HbA1c and glucose in this diabetic subpopulation.

[1] = retrospective subpopulation, 84 days, compared to placebo, non-significant

SMILES: C#C[C@]1(O)CC[C@H]2[C@@H]3[C@@H](O)C=C4C[C@@H](O)CC[C@]4(C)[C@H]3CC[C@@]21C [17α-ethynylandrost-5-ene-3β,7β,17β-triol]
- Fasting C-peptide Change from baseline (All patients, day 29): -0.2 ng/mL
- Fasting Glucose Change from baseline (All patients, day 29): -7.5 mg/dL
- HbA1c Change from baseline (All patients, day 29): 0 % Hb
- LDL Cholesterol change from baseline (All patients, day 29): 0.5 mg/dL
- Total Cholesterol change from baseline (All patients, day 29): -0.5 mg/dL
- Weight change from baseline (All patients, day 29): -0.4136 kg
- Fasting C-peptide Change from baseline (All patients, day 57): -0.2 ng/mL
- Fasting Glucose Change from baseline (All patients, day 57): 0 mg/dL
- HbA1c Change from baseline (All patients, day 57): 0.1 % Hb
- LDL Cholesterol change from baseline (All patients, day 57): -2 mg/dL
- Total Cholesterol change from baseline (All patients, day 57): -5.5 mg/dL
- Weight change from baseline (All patients, day 57): -0.4546 kg
- Fasting C-peptide Change from baseline (All patients, day 84): -0.05 ng/mL
- Fasting Glucose Change from baseline (All patients, day 84): -4.25 mg/dL
- HbA1c Change from baseline (All patients, day 84): 0.15 % Hb
- LDL Cholesterol change from baseline (All patients, day 84): 4.5 mg/dL
- Total Cholesterol change from baseline (All patients, day 84): 3 mg/dL
- Weight change from baseline (All patients, day 84): -0.03864 kg
- HOMA2% insulin sensitivity change from baseline (All patients, day 29): 4.2 % S
- HOMA2% β cell function change from baseline (All patients, day 29): 0.8 % b
- HOMA2 Insulin resistance change from baseline (All patients, day 29): −0.1453 IR
- HOMA2% insulin sensitivity change from baseline (All patients, day 57): 1.75 % S
- HOMA2% β cell function change from baseline (All patients, day 57): −2.15 % b
- HOMA2 Insulin resistance change from baseline (All patients, day 57): −0.0518 IR
- HOMA2% insulin sensitivity change from baseline (All patients, day 84): −1.45 % S
- HOMA2% β cell function change from baseline (All patients, day 84): 5.6 % b
- HOMA2 Insulin resistance change from baseline (All patients, day 84): 0.02309 IR
- HbA1c Change from baseline (Responder patients (BMI>27.99, insulin resistant, MCP1>399.99 pg/mL), day 29): −0.15 % Hb
- Fasting C-peptide Change from baseline (Responder patients, day 29): -0.2 ng/mL
- Fasting Glucose Change from baseline (Responder patients, day 29): -17.5 mg/dL
- LDL Cholesterol change from baseline (Responder patients, day 29): -8.5 mg/dL
- Total Cholesterol change from baseline (Responder patients, day 29): -0.5 mg/dL
- Weight change from baseline (Responder patients, day 29): -0.3727 kg
- Fasting C-peptide Change from baseline (Responder patients, day 57): 0 ng/mL
- Fasting Glucose Change from baseline (Responder patients, day 57): -7 mg/dL
- HbA1c Change from baseline (Responder patients, day 57): −0.1 % Hb
- LDL Cholesterol change from baseline (Responder patients, day 57): -11.5 mg/dL
- Total Cholesterol change from baseline (Responder patients, day 57): -18.5 mg/dL
- Weight change from baseline (Responder patients, day 57): -0.925 kg
- Fasting C-peptide Change from baseline (Responder patients, day 84): 0.25 ng/mL
- Fasting Glucose Change from baseline (Responder patients, day 84): -13 mg/dL
- HbA1c Change from baseline (Responder patients, day 84): −0.425 % Hb
- LDL Cholesterol change from baseline (Responder patients, day 84): -7.5 mg/dL
- Total Cholesterol change from baseline (Responder patients, day 84): -14.5 mg/dL
- Weight change from baseline (Responder patients, day 84): -1.33 kg
- HOMA2% insulin sensitivity change from baseline (Responder patients, day 29): 3.9 % S
- HOMA2% β cell function change from baseline (Responder patients, day 29): 2.1 % b
- HOMA2 Insulin resistance change from baseline (Responder patients, day 29): −0.3061 IR
- HOMA2% insulin sensitivity change from baseline (Responder patients, day 57): 1 % S
- HOMA2% β cell function change from baseline (Responder patients, day 57): 5.3 % b
- HOMA2 Insulin resistance change from baseline (Responder patients, day 57): −0.04016 IR
- HOMA2% insulin sensitivity change from baseline (Responder patients, day 84): −4.4 % S
- HOMA2% β cell function change from baseline (Responder patients, day 84): 16.3 % b
- HOMA2 Insulin resistance change from baseline (Responder patients, day 84): 0.2265 IR
- HbA1c, treatment vs placebo (entire 72 patient population that completed dosing on day 84): no statistical difference
- decrease in HbA1c (retrospective subpopulation (BMI>=28, insulin>=4 μU/mL, C-peptide>=2 ng/mL, MCP1>=400 pg/mL), 84 days, compared to placebo, p=0.06): −0.53%
- decrease in HOMA2 insulin resistance [1]: −0.65 IR
- decrease in fasting plasma C-peptide [1]: -0.43 ng/mL
- decrease in fasting plasma insulin [1]: −0.48 μU/mL
- decrease in fructosamine [1]: -25.75 µmol/L
- increase in HOMA2 beta cell function [1]: 17.95 % B
- increase in HOMA2 insulin sensitivity [1]: 11.3 % S
- decrease in fasting plasma glucose (retrospective subpopulation, 84 days, compared to placebo, p=0.09): -28.75 mg/dL
- sensitivity analysis using last observation carried forward (subpopulation individuals who completed at least 29 days of dosing): showed improvement
